Patent publication US20160120979A1, “METHOD OF APPLYING A COMPOSITION AND PHARMACEUTICAL COMPOSITION WITH A REGIMEN OF ADMINISTERING IT” (priority 2013, published 2016)
Where two headings read alike, the source gives them in different places.

Experiments:
[1] = test system: MU50 multidrug-resistant Staphylococcus aureus strain (MRSA); assay: Minimum inhibitory concentration (MIC) on MU50; assay type: cell-based; settings: overnight incubation
Source text: For some of the experimental tests MU50 bacteria were used. MU50 is a multidrug-resistant Staphylococcus aureus strain (MRSA). MRSA are bacteria which have naturally evolved under antibiotic selection pressure and which are known to be resistant to antibiotics including penicillins (methicillin, dicloxacillin, nafcillin, oxacillin, etc.) and cephalosporins. MU50 is additionally resistant to macrolides, quinolones and aminoglycosides.
The minimum inhibitory concentration (MIC), which inhibits the visible growth of a microorganism after an overnight incubation was determined for the following antibiotics: […]

[2] = test system: MU 50 multi-resistant bacteria; assay: Experiment 7: growth of MU50 after pulsed 400 nm photo-activation of antibiotics; assay type: cell-based, Staphylococcus aureus; settings: antibiotic concentration per the 11th table
Experimental: (§1) In Experiments 7 to 9 the effect of some exemplary photo-activated antibiotics is tested on two different multi resistant bacterial strains:
In Experiment 7 MU 50 multi-resistant bacteria as described above for Experiments 1 to 3 were tested.
(§2) G→Pulse ON 5 ms energy 0.05 J, OFF 45 ms during 10 minutes
(§3) The following experimental procedure are the same for experiments 7, 8 and 9: The bacterial cells were grown in Mueller Hinton Broth in the presence of an antibiotic at a concentration according to the table below until they reached turbidity of 1 according to the McFarland Standard (=3×10^8 bacteria/ml):
(§4) For each antibiotic two patterns of pulsed exposure for photo-activation were applied and a control without exposure to radiation. For example in experiment 7 and 8, pulse ON 10 ms energy 0.1 J, OFF 90 ms during 10 minutes and pulse ON 5 ms energy 0.05 J, OFF 45 ms i.e. in both treatments a 10% ON and a 90% OFF pattern and both for a duration of 10 minutes.
(§5) Incubation for 2 to up 36 hours at 37° C. until time=t2
(§6) At time=t2 one of the antibiotics is added to obtain the same concentration of antibiotic as during the original growth phase prior to time t1=0 as listed in the table above.
(§7) Incubation for further 2 to 4 hours at 37° C. in the presence of antibiotic until time=t3.
(§8) The absorbance value correlates to the colloidal effect and the number of bacteria in the sample.
(§9) These tables below list for each bacterial sample the difference in absorption values representing the difference in the number of bacteria present in each sample by subtracting the absorption values at time t4, which is the last measurement of the growth curve presented in FIGS. 3 to 5 from the last absorption value before the treatment with light at time t3. The values of A and G represent the effect of the treatment of the bacterial samples with two different light patterns for activation of the antibiotic as described above. The values of D correspond to the control samples without photo-activation of the antibiotic: […]

[3] = test system: PA01 Pseudamonas aeruginosa MultiR genetically modified bacteria; assay: Experiment 8: growth of PA01 after pulsed 400 nm photo-activation of antibiotics; assay type: cell-based; settings: antibiotic concentration per the 12th table
Experimental: as §1
In Experiment 8 and 9 PA01 Pseudamonas aeruginosa MultiR genetically modified bacteria were tested. This PA01 strain is genetically modified with a quinolone pump and conferring resistance to antibiotics of the quinolone group of antibiotics.
as §2, §3, §4, §5, §6, §7, §8, §9

Acinetobacter [4] = assay: Experiment 12: replication on antibiotic agar after pulsed 400 nm irradiation; assay type: cell-based; settings: 24 hours incubation; for C: Acinetobacter (no irradiation), replication: antibiotic 10 mg/l in MH agar; for D Acinetobacter (irradiation), replication: antibiotic 10 mg/l, 400 nm LED pulses 0.02 ms, 1 kHz, 10 minutes
Experimental: (§10) 15′000′000 multi-resistant bacteriae (0.050 ml of a McFarland of 1) were put on 40 mm diameter petri dishes. The petri dishes comprised MH agar with or without antibiotic.
(§11) […]. The LED power during 0.02 ms was measured to be 0.63 W on a Thorlabs power sensor with a surface area of 2.2×2.2 mm representing a power of 13 mW/cm^2.

Pseudomonas aeruginosa = assay: as above; assay type: cell-based; settings: 24 hours incubation; for A: Pseudomonas aeruginosa (no irradiation), replication: antibiotic 10 mg/l in MH agar; for B: Pseudomonas aeruginosa (irradiation), replication: antibiotic 10 mg/l, 400 nm LED pulses 0.02 ms, 1 kHz, 10 minutes
Experimental: as §10, §11

[5] = test system: Staphylococcus aureus MU500; assay: as above; assay type: cell-based; settings: 24 hours incubation; for E: Staphylococcus aureus MU500 (no irradiation), replication: antibiotic 10 mg/l in MH agar; for F: Staphylococcus aureus MU500 (irradiation), replication: antibiotic 10 mg/l, 400 nm LED pulses 0.02 ms, 1 kHz, 10 minutes
Experimental: as §10
(§12) The LED power during 0.02 ms was measured to be 0.63 W on a Thorlabs power sensor with a surface area of 2.2×2.2 mm representing a power of 13 mW/cm^2.

Acinetobacter [6] = assay type: cell-based; settings: for D Acinetobacter (irradiation), replication, second treatment / C: Acinetobacter (no irradiation), replication, second treatment: remaining bacteria of experiment 12 proliferated and treated again
Experimental: as §10, §12
(§13) After the irradiation treatment according to experiment 12, remaining bacteria were allowed to proliferate and then were subject to the treatment according to experiment 12 again in order to test for possible new resistances to the treatment. The values in the following table are designated as in experiment 12: […]

[7] = test system: Staphylococcus aureus MU500; assay type: cell-based
Experimental: as §10, §12, §13

[8] = A: 400 nm LED pulse ON 10 ms energy 0.1 J, OFF 90 ms during 10 minutes, approx. ten hours after t3
[9] = G: 400 nm LED pulse ON 5 ms energy 0.05 J, OFF 45 ms during 10 minutes
[10] = A: 400 nm LED pulse ON 10 ms energy 0.1 J, OFF 90 ms during 10 minutes
[11] = second treatment according to experiment 12
[12] = remaining bacteria of experiment 12 proliferated and treated again

| Compound | MIC [1] [µg/mL] | difference in absorption values (595-600 nm) between t4 and t3 [2, 8] | difference in absorption values (595-600 nm) between t4 and t3 ([2]; D: control no pulse) | difference in absorption values (595-600 nm) between t4 and t3 [2, 9] | difference in absorption values (595-600 nm) between t4 and t3 [3, 10] | difference in absorption values (595-600 nm) between t4 and t3 ([3]; D: control no pulse) | difference in absorption values (595-600 nm) between t4 and t3 [3, 9] | C: Acinetobacter (no irradiation), replication (Acinetobacter [4]) | D Acinetobacter (irradiation), replication (Acinetobacter [4]) | A: Pseudomonas aeruginosa (no irradiation), replication (Pseudomonas aeruginosa) | B: Pseudomonas aeruginosa (irradiation), replication (Pseudomonas aeruginosa) | E: Staphylococcus aureus MU500 (no irradiation), replication [5] | F: Staphylococcus aureus MU500 (irradiation), replication [5] | D Acinetobacter (irradiation), replication, second treatment (Acinetobacter [6]) | C: Acinetobacter (no irradiation), replication, second treatment (Acinetobacter [6]) | resistance to the treatment of the second generation resistant bacteria (Acinetobacter [6]; [11]) | F: Staphylococcus aureus MU500 (irradiation), replication, second treatment ([7]; remaining bacteria of experiment 12 proliferated and treated again, irradiation) | E: Staphylococcus aureus MU500 (no irradiation), replication, second treatment [7, 12] | resistance to the treatment of the second generation resistant bacteria [7, 11] | MIC ([1]; Staphylococcus aureus, MRSA, read-out: MIC) [µg/mL] |
| --- | --- | --- | --- | --- | --- | --- | --- | --- | --- | --- | --- | --- | --- | --- | --- | --- | --- | --- | --- | --- |
| Gentamicin | >16 | – | – | – | – | – | – | – | – | – | – | – | – | – | – | – | – | – | – | – |
| C[C@H]1c2cccc(O)c2C(=O)C2=C(O)[C@]3(O)C(=O)C(C(N)=O)=C(O)[C@@H](N(C)C)[C@@H]3[C@@H](O)[C@@H]21 [Doxycycline] | – | −0.083 | 0.0072 | −0.0429 | −0.0365 | 0.0735 | 0.0181 | R (Bacteria can replicate after the treatment) | NR (No replication) | R (Bacteria can replicate after the treatment) | NR (No replication) | R (Bacteria can replicate after the treatment) | NR (No replication) | NR (No replication) | R (Bacteria can replicate after the treatment) | no resistance to the treatment | NR (No replication) | R (Bacteria can replicate after the treatment) | no resistance to the treatment | – |
| O=C(O)c1cn(C2CC2)c2cc(N3CCNCC3)c(F)cc2c1=O [Ciprofloxacin] | – | – | – | – | – | – | – | R (Bacteria can replicate after the treatment) | NR (No replication) | R (Bacteria can replicate after the treatment) | NR (No replication) | R (Bacteria can replicate after the treatment) | – | NR (No replication) | R (Bacteria can replicate after the treatment) | – | – | R (Bacteria can replicate after the treatment) | – | > 16 |
| Penicillin | >8 | – | – | – | – | – | – | – | – | – | – | – | – | – | – | – | – | – | – | – |
| CCn1cc(C(=O)O)c(=O)c2cc(F)c(N3CCNCC3)cc21 [Norfloxacin] | – | −0.1198 | −0.1119 | −0.0589 | −0.0491 | 0.0039 | −0.1879 | R (Bacteria can replicate after the treatment) | NR (No replication) | R (Bacteria can replicate after the treatment) | NR (No replication) | R (Bacteria can replicate after the treatment) | PR (Bacteria can replicate partially) | – | – | – | – | – | – | – |
